We go through 27 compounds from patent US20190135793A1, “HETEROCYCLIC INHIBITORS OF KDM5 FOR THE TREATMENT OF DISEASE” (Board of Regents, The University of Texas System, priority 2017, published 2019).

Test [1] addresses T1, KDM5B (Homo sapiens, UniProt Q9UGL1).
T1 construct: Full length of KDM5B and KDM4C protein were purchased from Active Motif; purchased Active Motif 31832
Put plainly: biochemical. The method in brief:
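KDM5B (0.5 nM final) was preincubated with compound for 15 min at room temperature, then reacted with biotinylated peptide (3 nM final) for 25 min at room temperature.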

In test [2] the target is T2, KDM4C (Homo sapiens, UniProt Q9H3R0).
T2 construct: Full length of KDM5B and KDM4C protein were purchased from Active Motif; purchased Active Motif 31858
T2 sequence (Q9H3R0 1-1056): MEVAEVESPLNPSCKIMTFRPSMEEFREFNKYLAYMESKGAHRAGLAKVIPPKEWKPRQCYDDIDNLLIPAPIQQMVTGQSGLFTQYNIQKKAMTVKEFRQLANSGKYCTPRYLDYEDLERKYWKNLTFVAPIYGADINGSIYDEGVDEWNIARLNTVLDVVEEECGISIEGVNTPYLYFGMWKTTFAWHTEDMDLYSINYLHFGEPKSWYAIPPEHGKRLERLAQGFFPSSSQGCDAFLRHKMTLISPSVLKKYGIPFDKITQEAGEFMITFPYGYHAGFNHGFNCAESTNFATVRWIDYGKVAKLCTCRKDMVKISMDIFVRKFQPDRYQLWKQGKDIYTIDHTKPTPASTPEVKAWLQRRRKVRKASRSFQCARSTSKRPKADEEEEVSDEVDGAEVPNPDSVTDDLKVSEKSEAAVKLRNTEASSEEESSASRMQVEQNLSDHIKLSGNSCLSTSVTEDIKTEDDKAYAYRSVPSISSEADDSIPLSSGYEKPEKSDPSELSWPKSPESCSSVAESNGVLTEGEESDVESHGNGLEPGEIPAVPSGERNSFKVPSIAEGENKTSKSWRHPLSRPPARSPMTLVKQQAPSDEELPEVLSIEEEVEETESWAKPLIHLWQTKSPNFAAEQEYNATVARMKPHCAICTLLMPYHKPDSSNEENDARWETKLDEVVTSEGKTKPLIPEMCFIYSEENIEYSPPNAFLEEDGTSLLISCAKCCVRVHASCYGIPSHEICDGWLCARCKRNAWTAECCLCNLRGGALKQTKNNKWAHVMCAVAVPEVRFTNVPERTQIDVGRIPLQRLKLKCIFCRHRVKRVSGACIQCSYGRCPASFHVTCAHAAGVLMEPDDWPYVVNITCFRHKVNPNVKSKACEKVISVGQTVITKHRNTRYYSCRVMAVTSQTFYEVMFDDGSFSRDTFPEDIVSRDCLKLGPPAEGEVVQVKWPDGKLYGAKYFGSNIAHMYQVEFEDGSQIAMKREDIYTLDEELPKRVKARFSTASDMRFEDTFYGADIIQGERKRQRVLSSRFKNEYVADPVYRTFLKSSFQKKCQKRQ
The test is described as follows: KDM4C AlphaScreen assay. In kind it is biochemical. The following applies: AlphaScreen; full length KDM4C 0.2 nM; biotinylated H3K9Me3 peptide 3 nM; 30 minutes at room temperature. The procedure, abridged: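 Full-length KDM4C (0.2 nM final) was preincubated 15 min at RT with compound in HEPES pH 7.4 with Tween-20, BSA and TCEP. The reaction ran 30 min at RT after adding biotinylated peptide (3 nM final) in buffer with Fe(II), α-ketoglutarate and ascorbate. EDTA-containing AlphaScreen beads stopped it; IC50 was curve-fitted.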

Setting [3] is: AlphaScreen, full length KDM5B 0.5 nM, biotinylated H3K4Me3 peptide 3 nM, 25 minutes at room temperature, read-out: KDM5B (IC50).

Like-named read-outs stand apart in the source and are kept apart here.

T1 sequence (Q9UGL1 whole entry): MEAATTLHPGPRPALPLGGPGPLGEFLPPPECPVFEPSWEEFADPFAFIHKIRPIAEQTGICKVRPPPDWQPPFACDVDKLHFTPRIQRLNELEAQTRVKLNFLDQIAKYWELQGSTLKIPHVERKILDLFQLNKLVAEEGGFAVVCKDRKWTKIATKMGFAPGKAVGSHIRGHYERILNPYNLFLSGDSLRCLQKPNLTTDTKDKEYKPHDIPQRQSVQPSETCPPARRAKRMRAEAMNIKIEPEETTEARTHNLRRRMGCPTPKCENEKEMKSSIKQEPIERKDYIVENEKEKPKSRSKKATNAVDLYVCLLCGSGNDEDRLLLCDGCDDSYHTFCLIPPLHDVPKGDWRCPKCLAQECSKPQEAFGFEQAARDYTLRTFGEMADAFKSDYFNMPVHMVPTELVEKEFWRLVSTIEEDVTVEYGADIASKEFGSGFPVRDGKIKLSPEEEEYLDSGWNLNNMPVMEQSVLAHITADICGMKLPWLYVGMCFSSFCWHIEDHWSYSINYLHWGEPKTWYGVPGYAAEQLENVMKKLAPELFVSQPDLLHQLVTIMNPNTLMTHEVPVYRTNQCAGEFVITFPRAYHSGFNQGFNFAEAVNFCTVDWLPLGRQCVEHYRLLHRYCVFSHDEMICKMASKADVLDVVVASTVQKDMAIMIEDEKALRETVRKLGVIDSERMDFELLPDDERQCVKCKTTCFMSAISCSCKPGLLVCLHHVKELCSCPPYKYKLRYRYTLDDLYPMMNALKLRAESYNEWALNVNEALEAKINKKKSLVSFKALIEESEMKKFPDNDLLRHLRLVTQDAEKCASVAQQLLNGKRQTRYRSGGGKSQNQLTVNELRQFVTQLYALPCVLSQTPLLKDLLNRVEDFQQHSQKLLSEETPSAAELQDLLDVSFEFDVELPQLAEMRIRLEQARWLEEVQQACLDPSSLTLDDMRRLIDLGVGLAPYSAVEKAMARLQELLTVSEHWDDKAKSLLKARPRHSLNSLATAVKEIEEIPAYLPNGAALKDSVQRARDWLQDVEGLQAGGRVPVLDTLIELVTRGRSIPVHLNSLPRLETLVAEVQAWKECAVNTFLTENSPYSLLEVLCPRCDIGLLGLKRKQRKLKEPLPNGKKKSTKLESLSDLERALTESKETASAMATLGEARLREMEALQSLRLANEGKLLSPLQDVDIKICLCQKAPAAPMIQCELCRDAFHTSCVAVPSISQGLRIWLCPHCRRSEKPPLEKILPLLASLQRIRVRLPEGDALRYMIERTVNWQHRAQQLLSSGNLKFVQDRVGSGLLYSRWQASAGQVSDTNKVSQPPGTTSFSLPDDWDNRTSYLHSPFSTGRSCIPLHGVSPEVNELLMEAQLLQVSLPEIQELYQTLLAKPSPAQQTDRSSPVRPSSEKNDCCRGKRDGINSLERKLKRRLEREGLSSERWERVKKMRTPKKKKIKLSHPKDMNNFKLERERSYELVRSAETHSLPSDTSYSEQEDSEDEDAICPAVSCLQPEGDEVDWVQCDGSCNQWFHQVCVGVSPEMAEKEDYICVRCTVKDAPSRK

As to `CC(C)c1c(O)nc(-n2ccnc2)nc1-c1cnn(Cc2ccncc2)c1` [Example 53, 2-(1H-Imidazol-1-yl)-5-(propan-2-yl)-6-[1-(pyridin-4-ylmethyl)-1H-pyrazol-4-yl]-pyrimidin-4-ol], the IC50 came to 0.015 µM in test [1] and 1.74 µM in test [2].

Consider `CC(C)c1c(O)nc(-n2ccnc2)nc1OC1CCOC1` (stereo not drawn) [Example 135, 2-(1H-Imidazol-1-yl)-6-(oxolan-3-yloxy)-5-(propan-2-yl)pyrimidin-4-ol], for which the values for the IC50 in test [1] and in test [2] were 0.047 µM and 2.05 µM, respectively.

With `CC(C)c1c(O)nc(-n2ccnc2)nc1-c1cnn(CCC#N)c1` [Example 44, 3-{4-[6-Hydroxy-2-(1H-imidazol-1-yl)-5-(propan-2-yl)pyrimidin-4-yl]-1H-pyrazol-1-yl}propanenitrile], the IC50 in test [1] was 0.01 µM; in test [2] it was 0.815 µM.

Turning to `CC(C)c1c(O)nc(-n2ccnc2)nc1-c1cnn(CC(=O)NCCCN(C)C)c1` [Example 90, N-[3-(Dimethylamino)-propyl]-2-{4-[6-hydroxy-2-(1H-imidazol-1-yl)-5-(propan-2-yl)pyrimidin-4-yl]-1H-pyrazol-1-yl}acetamide], the concentration for half-maximal inhibition (IC50) in test [1] (setting [3]) was 0.004 µM; in test [2], 0.41 µM.

As to `CC(C)c1c(O)nc(-n2ccnc2)nc1-c1cnn(CCO)c1` [Example 80, 6-[1-(2-Hydroxyethyl)-1H-pyrazol-4-yl]-2-(1H-imidazol-1-yl)-5-(propan-2-yl)-pyrimidin-4-ol], the figures for the IC50 in test [1] and in test [2] were 0.051 µM and 3.49 µM, respectively.

`COc1nc(-n2ccnc2)nc(O)c1C(C)C` [Example 12, 2-(1H-Imidazol-1-yl)-5-isopropyl-6-methoxypyrimidin-4-ol]: the figures for the concentration for half-maximal inhibition (IC50) in test [1] and in test [2] were 0.107 µM and 1.46 µM, respectively.

On to `COCCn1cc(-c2nc(-n3ccnc3)nc(O)c2C(C)C)cn1` [Example 51, 2-(1H-Imidazol-1-yl)-6-[1-(2-methoxyethyl)-1H-pyrazol-4-yl]-5-(propan-2-yl)pyrimidin-4-ol], for which the IC50 came out at 0.014 µM in test [1] and 1.96 µM in test [2].

`Cc1nc(-n2ccnc2)nc(O)c1C(C)C` [Example 22, 2-(1H-imidazol-1-yl)-5-isopropyl-6-methylpyrimidin-4-ol]: the IC50 in test [1] stood at 0.016 µM; in test [2], 0.47 µM.

Consider `CC(C)c1c(O)nc(-n2ccnc2)nc1-c1cnn(CC(=O)NCCN2CCOCC2)c1` [Example 100, 2-{4-[6-Hydroxy-2-(1H-imidazol-1-yl)-5-(propan-2-yl)pyrimidin-4-yl]-1H-pyrazol-1-yl}-N-[2-(morpholin-4-yl)ethyl]-acetamide], for which the IC50 in test [1] came to 0.012 µM; in test [2] it was 1.26 µM.

`CC(C)c1c(O)nc(-n2ccnc2)nc1-c1cnn(CC(=O)O)c1` [Example 5, 2-(4-(6-Hydroxy-2-(1H-imidazol-1-yl)-5-isopropylpyrimidin-4-yl)-1H-pyrazol-1-yl)acetic acid]: the half-maximal inhibitory concentration (IC50) in test [1] worked out at 0.117 µM; in test [2], 7.45 µM.

As to `CC(C)c1c(O)nc(-n2ccnc2)nc1-c1ccc(CN)cc1` [Example 42, 6-[4-(Aminomethyl)phenyl]-2-(1H-imidazol-1-yl)-5-(propan-2-yl)pyrimidin-4-ol], the IC50 in test [1] came to 0.004 µM; in test [2] it was 0.554 µM.

Turning to `Oc1nc(-c2cncs2)ncc1C1CC1` [Example 32, 5-cyclopropyl-2-(thiazol-5-yl)pyrimidin-4-ol], the IC50 in test [1] worked out at 4.42 µM; in test [2], 14.1 µM.

As to `CC(C)c1c(O)nc(-n2ccnc2)nc1-c1cnn(C(C)(C)C)c1` [Example 75, 6-(1-tert-Butyl-1H-pyrazol-4-yl)-2-(1H-imidazol-1-yl)-5-(propan-2-yl)pyrimidin-4-ol], the IC50 in test [1] (setting [3]) stood at 0.027 µM; in test [2], 1.24 µM.

Take `CC(C)c1c(O)nc(-n2ccnc2)nc1OCC(=O)NS(C)(=O)=O` [Example 17, 2-{[6-hydroxy-2-(1H-imidazol-1-yl)-5-(propan-2-yl)pyrimidin-4-yl]oxy}-N-methanesulfonylacetamide]: the 50% inhibitory concentration (IC50) was 0.148 µM in test [1] and 9.57 µM in test [2].

For the compound `CC(C)c1c(O)nc(-n2ccnc2)nc1-c1cnn(CC(=O)N2CCC(O)C2)c1` (stereo not drawn) [Example 112, 2-{4-[6-Hydroxy-2-(1H-imidazol-1-yl)-5-(propan-2-yl)pyrimidin-4-yl]-1H-pyrazol-1-yl}-1-(3-hydroxy-pyrrolidin-1-yl)ethan-1-one], the values for the IC50 in test [1] and in test [2] were 0.021 µM and 1.6 µM, respectively.

For the compound `CNC(=O)c1ccc(-c2nc(-n3ccnc3)nc(O)c2C(C)C)cn1` [Example 120, 5-[6-Hydroxy-2-(1H-imidazol-1-yl)-5-(propan-2-yl)pyrimidin-4-yl]-N-methyl-pyridine-2-carboxamide], the half-maximal inhibitory concentration (IC50) in test [1] (setting [3]) came to 0.018 µM; in test [2], 2.19 µM.

`CC(C)c1c(O)nc(-n2ccnc2)nc1OCCN1CCNCC1` [Example 124, 2-(1H-Imidazol-1-yl)-6-[2-(piperazin-1-yl)ethoxy]-5-(propan-2-yl)pyrimidin-4-ol]: the IC50 in test [1] (setting [3]) amounted to 0.01 µM; in test [2], 1.2 µM.

Regarding `CC(C)c1c(O)nc(-n2ccnc2)nc1-c1cn[nH]c1` [Example 46, 2-(1H-Imidazol-1-yl)-5-(propan-2-yl)-6-(1H-pyrazol-4-yl)pyrimidin-4-ol], the IC50 was determined as 0.01 µM in test [1] (setting [3]) and 1.13 µM in test [2].

With `CC(C)c1c(O)nc(-n2ccnc2)nc1NCc1cccnc1` [Example 18, 2-(1H-Imidazol-1-yl)-5-isopropyl-6-((pyridin-3-ylmethyl)amino)pyrimidin-4-ol], the IC50 in test [1] amounted to 0.027 µM; in test [2], 2.97 µM.

With `CNC(=O)c1cccc(-c2nc(-n3ccnc3)nc(O)c2C(C)C)c1` [Example 57, 3-[6-Hydroxy-2-(1H-imidazol-1-yl)-5-(propan-2-yl)pyrimidin-4-yl]-N-methyl-benzamide], the IC50 is 0.016 µM in test [1] and 2.03 µM in test [2].

As to `CC(C)c1c(O)nc(-n2ccnc2)nc1-c1cnn(CC(=O)NC(CO)C(C)C)c1` (stereo not drawn) [Example 115, 2-{4-[6-Hydroxy-2-(1H-imidazol-1-yl)-5-(propan-2-yl)pyrimidin-4-yl]-1H-pyrazol-1-yl}-N-(1-hydroxy-3-methylbutan-2-yl)acetamide], the IC50 in test [1] was 0.03 µM; in test [2], 1.25 µM.

`CC(C)c1c(O)nc(-n2ccnc2)nc1-c1cnn(C2CCOCC2)c1` [Example 59, 2-(1H-Imidazol-1-yl)-6-[1-(oxan-4-yl)-1H-pyrazol-4-yl]-5-(propan-2-yl)pyrimidin-4-ol]: the figures for the half-inhibitory concentration (IC50) in test [1] and in test [2] were 0.016 µM and 0.746 µM, respectively.

Turning to `CC(C)c1c(O)nc(-n2ccnc2)nc1C#Cc1cccnc1` [Example 10a, 2-(1H-imidazol-1-yl)-5-(propan-2-yl)-6-[2-(pyridin-3-yl)ethynyl]pyrimidin-4-ol], the figures for the IC50 in test [1] and in test [2] were 0.011 µM and 0.908 µM, respectively.

With `CC(C)c1c(O)nc(-n2ccnc2)nc1-c1cnn(CC(=O)N2CCC(O)CC2)c1` [Example 119, 2-{4-[6-Hydroxy-2-(1H-imidazol-1-yl)-5-(propan-2-yl)pyrimidin-4-yl]-1H-pyrazol-1-yl}-1-(4-hydroxy-piperidin-1-yl)ethan-1-one], the IC50 came to 0.039 µM in test [1] (setting [3]) and 1.85 µM in test [2].

`CC(C)c1c(O)nc(-n2ccnc2)nc1-c1cccc(C#N)c1` [Example 79, 3-[6-Hydroxy-2-(1H-imidazol-1-yl)-5-(propan-2-yl)pyrimidin-4-yl]benzonitrile]: the IC50 in test [1] was determined as 0.04 µM; in test [2] it was 5.19 µM.

`Cc1nc(-c2nccs2)nc(O)c1C(C)C` [Example 158, 6-Methyl-5-(propan-2-yl)-2-(1,3-thiazol-2-yl)-pyrimidin-4-ol]: the half-maximal inhibitory concentration (IC50) in test [1] (setting [3]) is 2.41 µM; in test [2], 30 µM.

For the compound `Cc1nc(-c2cn[nH]c2)nc(O)c1C(C)C` [Example 26, 5-Isopropyl-6-methyl-2-(1H-pyrazol-4-yl)pyrimidin-4-ol], the concentration for half-maximal inhibition (IC50) came out at 1.07 µM in test [1] and 15.8 µM in test [2].

In general, IC50 refers to the concentration that inhibits the measured activity by half.
